Reference: PubChem BioAssay (NCI)
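All cell lines were grown in 96-well plates and treated with compound for 48 hours. TGI denotes the concentration required for complete inhibition of growth.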 *1 amine or outer side, *2 acyl side, *3 side chain or, on linkers, in order; H or OH if unused. Where a SMILES comes first, the peptide text is derived from it. Bridges are numbered along the chain shown (N, C = ends). Roman numbers before positions name the chains, in order. [ ]: non-standard residue; d: D form. Actinocin(9to1) = Cc1c2oc3c(C)ccc(C(=O)[*:1])c3nc-2c(C(=O)[*:2])c(N)c1=O; Hyp = O=C(O)[CH]1C[CH](O)CN1; NMeV = CN[CH](C(=O)O)C(C)C; Sar = CNCC(=O)O

Columns and labels:
Test in all cases: DTP human tumour cell line panel, 48 h
[1] = test system: SK-MEL-28 melanoma
[2] = test system: NCI-H226 lung
[3] = test system: NCI-H460 lung
[4] = test system: SK-MEL-2 melanoma
[5] = test system: PC-3 prostate
[6] = test system: SW-620 colon
[7] = test system: DU-145 prostate
[8] = test system: UACC-257 melanoma
[9] = test system: HCT-116 colon
[10] = test system: ACHN renal

Measured: TGI

Cc1c(C)c(C)c(-n2c(=O)n(C)c(=O)n2-c2cc(C(C)(C)C)cc(C(C)(C)C)c2O)c(C)c1C
23.9 µM: [8]
27.1 µM: [3]
22.1 µM: [2]
28.4 µM: [6]
28 µM: [1]
12 µM: [5]
25.9 µM: [7]
24.8 µM: [10]
20.3 µM: [4]
18.4 µM: [9]

CC(C(=O)c1ccncc1)c1ccccn1 (stereo not given)
> 100 µM: all assays above

Nc1ccc2ccc(N3CCNCC3)nc2n1
85.2 µM: [2]
> 100 µM: all other assays above

COc1ccc(NC(C(N)=O)c2cc3cc(Br)ccc3nc2Cl)cc1 (stereo not given)
> 100 µM: all assays above

Cc1cc2c(cc1C)C(=O)C1(C2)Cc2cc3c(cc2C1=O)CCC3 (stereo not given)
> 100 µM: all assays above

COc1cccc2cc(C(=O)Nc3ccccc3)c(=N)oc12
> 100 µM: all assays above

Nn1c(=O)[nH]c2ncn(Cc3ccccc3)c2c1=O
> 100 µM: all assays above

C/C=C(\C)C(=O)O[C@@H]1CC(C)(C)CC2C3=CCC4[C@]56CC[C@](O)(OC5)C(C)(C)C6CC[C@@]4(C)C3(C)CC[C@]21C(=O)O (stereo not given in full)
> 100 µM: all assays above

O=C1CC(=O)NC(=NN2C(=O)CSC2C(=O)c2ccco2)N1 (stereo not given)
> 100 µM: all assays above

N/C(=N\Nc1ccc(Cl)cc1)c1cnccn1
> 100 µM: all assays above

COC(=O)C1=C(C(=O)OC)C(N(C)C)C(C(=O)OC)=C(C(=O)OC)S1
> 100 µM: all assays above

O=[N+]([O-])c1cc(F)ccc1S(=O)(=O)c1ccccc1
> 10 µM: all assays above

CC(C)(C)NC(=O)/C(=C\Sc1ccccc1)c1ccccc1
> 100 µM: all assays above

Cc1c2oc3c(C)ccc(C(=O)NC4C(=O)NC(C(C)C)C(=O)N5CC(O)CC5C(=O)N(C)CC(=O)N(C)C(C(C)C)C(=O)OC4C)c3nc-2c(C(=O)NC2C(=O)NC(C(C)C)C(=O)N3CC(O)CC3C(=O)N(C)CC(=O)N(C)C(C(C)C)C(=O)OC2C)c(N)c1=O (stereo not given) (I: TV[Hyp][Sar][NMeV] / II: TV[Hyp][Sar][NMeV]; ester I:1-I:C, II:1-II:C; linker I:N-II:N via Actinocin(9to1); configuration not given here)
> 1 µM: all assays above

CO/N=C(\C([O-])=N\[n+]1cnn(CC(=O)OC(C)(C)C)c1)c1csc(NC(c2ccccc2)(c2ccccc2)c2ccccc2)n1
> 10 µM: all assays above

O=c1c2cnccc2cc2c3ccccc3ccn12
> 100 µM: all assays above

COC(=O)C(Cc1c[nH]c2ccccc12)NP(=O)(O)OCC1OC(n2cc(Br)c(=O)[nH]c2=O)CC1O (stereo not given)
> 100 µM: all assays above

CC(=O)C(C(C)=O)[C@@H]1OC(C)(C)O[C@@H]1[C@H]1COC(C)(C)O1
> 100 µM: all assays above
